Data on 20 compounds can be found in patent US12662491B2 (Redona Therapeutics, Inc., priority 2020, dated 2026).

The target in this assay is T1, Zcchc11 enzyme (Homo sapiens, UniProt Q5TAX3).
T1 construct: made in house; host or cells: HEK293 cells (Zcchc11); E. coli Rosetta II (LIN28A)
T1 sequence (Q5TAX3 212-1420): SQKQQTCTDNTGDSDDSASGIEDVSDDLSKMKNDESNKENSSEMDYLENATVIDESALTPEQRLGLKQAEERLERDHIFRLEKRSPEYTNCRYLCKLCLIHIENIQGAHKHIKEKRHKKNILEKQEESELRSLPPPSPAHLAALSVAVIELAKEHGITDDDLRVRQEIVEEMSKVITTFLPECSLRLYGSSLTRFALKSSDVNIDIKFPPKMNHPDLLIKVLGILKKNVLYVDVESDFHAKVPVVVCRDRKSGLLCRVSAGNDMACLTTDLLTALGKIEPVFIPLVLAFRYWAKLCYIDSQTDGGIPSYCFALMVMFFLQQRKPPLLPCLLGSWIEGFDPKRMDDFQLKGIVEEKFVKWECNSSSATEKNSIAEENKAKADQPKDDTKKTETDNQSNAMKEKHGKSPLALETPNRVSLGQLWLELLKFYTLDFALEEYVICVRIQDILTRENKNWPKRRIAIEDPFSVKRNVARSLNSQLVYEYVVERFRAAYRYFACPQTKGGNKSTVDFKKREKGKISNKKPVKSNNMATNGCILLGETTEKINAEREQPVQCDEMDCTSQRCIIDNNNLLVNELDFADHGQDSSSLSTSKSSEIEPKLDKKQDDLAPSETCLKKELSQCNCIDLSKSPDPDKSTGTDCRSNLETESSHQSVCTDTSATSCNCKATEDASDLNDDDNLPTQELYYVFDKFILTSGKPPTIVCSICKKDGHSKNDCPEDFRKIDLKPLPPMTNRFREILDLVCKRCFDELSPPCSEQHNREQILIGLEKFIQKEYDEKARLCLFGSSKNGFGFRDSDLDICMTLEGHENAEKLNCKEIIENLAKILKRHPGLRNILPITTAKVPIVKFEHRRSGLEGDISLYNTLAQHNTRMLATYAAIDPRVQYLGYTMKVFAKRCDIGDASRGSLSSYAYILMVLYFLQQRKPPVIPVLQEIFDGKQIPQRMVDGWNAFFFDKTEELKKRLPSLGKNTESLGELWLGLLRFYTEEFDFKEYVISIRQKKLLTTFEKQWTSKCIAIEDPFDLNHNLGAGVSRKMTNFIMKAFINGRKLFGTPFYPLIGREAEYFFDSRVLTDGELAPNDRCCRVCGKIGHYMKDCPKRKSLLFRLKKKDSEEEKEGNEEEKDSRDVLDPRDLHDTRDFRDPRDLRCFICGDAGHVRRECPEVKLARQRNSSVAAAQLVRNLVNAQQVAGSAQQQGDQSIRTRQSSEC
Put plainly: TUTase assay (Zcchc11 assay, Lin28a-dependent polyuridylation of pre-let-7). The class given is biochemical. Conditions: LIN28A 10 nM, Zcchc11 0.2 nM, 5′-fluorescein pre-let-7 miRNA 2 nM, UTP 5 uM, room temperature, 30 minutes pre-incubation; read-out: Potency Lin28a-dep Z11 IC50. The gist of the method: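 Human Zcchc11 residues 212-1420 (HEK293-expressed, MBP tag cleaved, C-terminal FLAG) at 0.2 nM, with 10 nM full-length human LIN28A and 2 nM 5′-fluorescein pre-let-7, preincubated with compound 30 min at room temperature. Reaction started with 5 uM UTP plus 4 nM 3′-rhodamine A20 quench probe; fluorescein loss read kinetically, IC50 from initial rates.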
Usually IC50 stands for the midpoint of a concentration-inhibition curve. Regarding `NC1CN(c2ccc(-n3cc(C(=O)O)c(=O)c4cc(Cl)c(N5CCC[C@@H]5COc5ncccc5Cl)cc43)cn2)C1` [Example 28, (R)-1-(6-(3-aminoazetidin-1-yl)pyridin-3-yl)-6-chloro-7-(2-(((3-chloropyridin-2-yl)oxy)methyl)pyrrolidin-1-yl)-4-oxo-1,4-dihydroquinoline-3-carboxylic acid], the IC50 was at most 1000 nM.

In the case of `O=C(O)c1cn(C2CC2)c2c(F)c(N3CCC[C@@H]3COc3cccnn3)c(F)cc2c1=O` [Example 29, (R)-1-cyclopropyl-6,8-difluoro-4-oxo-7-(2-((pyridazin-3-yloxy)methyl)pyrrolidin-1-yl)-1,4-dihydroquinoline-3-carboxylic acid], the IC50 fell in the range of 1000 to 10000 nM.

As for `COC1CC(n2cc(C(=O)O)c(=O)c3cc(F)c(N4CCC[C@@H]4COc4ncccc4C)cc32)C1` (stereo partly drawn) [Example 30, (R)-6-fluoro-1-(3-methoxycyclobutyl)-7-(2-(((3-methylpyridin-2-yl)oxy)methyl)pyrrolidin-1-yl)-4-oxo-1,4-dihydroquinoline-3-carboxylic acid], the half-inhibitory concentration (IC50) is at most 1000 nM.

Take `CCS(=O)(=O)Nc1ccc(-n2cc(C(=O)O)c(=O)c3cc(Cl)c(N4CCC[C@@H]4COc4ncccc4Cl)cc32)cc1` [Example 31, (R)-6-chloro-7-(2-(((3-chloropyridin-2-yl)oxy)methyl)pyrrolidin-1-yl)-1-(4-(ethylsulfonamido)phenyl)-4-oxo-1,4-dihydroquinoline-3-carboxylic acid]: the concentration for half-maximal inhibition (IC50) was at most 1000 nM.

For the compound `O=C(O)c1cn(-c2ccc3c(c2F)CCN3)c2cc(N3CCC[C@@H]3COc3ccccn3)c(F)cc2c1=O` [Example 32, (R)-6-fluoro-1-(4-fluoroindolin-5-yl)-4-oxo-7-(2-((pyridin-2-yloxy)methyl)pyrrolidin-1-yl)-1,4-dihydroquinoline-3-carboxylic acid], the IC50 is at most 1000 nM.

For the compound `O=C(O)c1cn(-c2cnc(O)cn2)c2cc(N3CCC[C@@H]3COc3ccccn3)c(Cl)cc2c1=O` [Example 33, 6-chloro-1-(5-hydroxypyrazin-2-yl)-4-oxo-7-[(2R)-2-[(pyridin-2-yloxy)methyl]pyrrolidin-1-yl]-1,4-dihydroquinoline-3-carboxylic acid], the IC50 was at most 1000 nM.

In the case of `O=C(O)c1cn(C2CN(CCO)C2)c2cc(N3CCC[C@@H]3COc3ncccc3Cl)c(Cl)cc2c1=O` [Example 34, 6-Chloro-7-[(2R)-2-{[(3-chloropyridin-2-yl)oxy]methyl}pyrrolidin-1-yl]-1-[1-(2-hydroxyethyl)azetidin-3-yl]-4-oxo-1,4-dihydroquinoline-3-carboxylic acid], the IC50 lay in the range of 1000 to 10000 nM.

With `Cc1cccnc1OC[C@H]1CCCN1c1cc2c(cc1C#N)c(=O)c(C(=O)O)cn2C1(C)CC1` [Example 35, 6-Cyano-1-(1-methylcyclopropyl)-7-[(2R)-2-{[(3-methylpyridin-2-yl)oxy]methyl}pyrrolidin-1-yl]-4-oxo-1,4-dihydroquinoline-3-carboxylic acid], the IC50 was at most 1000 nM.

For `CC(=O)N1CC(n2cc(C(=O)O)c(=O)c3cc(Cl)c(N4CCC[C@@H]4COc4ncccc4C)cc32)C1` [Example 36, 1-(1-Acetylazetidin-3-yl)-6-chloro-7-[(2R)-2-{[(3-methylpyridin-2-yl)oxy]methyl}pyrrolidin-1-yl]-4-oxo-1,4-dihydroquinoline-3-carboxylic acid], the IC50 fell in the range of 1000 to 10000 nM.

`COCCN1CC(C)(n2cc(C(=O)O)c(=O)c3cc(Cl)c(N4CCC[C@@H]4COc4ncccc4Cl)cc32)C1` [Example 37, 6-Chloro-7-[(2R)-2-{[(3-chloropyridin-2-yl)oxy]methyl}pyrrolidin-1-yl]-1-[1-(2-methoxyethyl)-3-methylazetidin-3-yl]-4-oxo-1,4-dihydroquinoline-3-carboxylic acid]: the concentration for half-maximal inhibition (IC50) was 1000 to 10000 nM.

As for `COCCN1CCC(n2cc(C(=O)O)c(=O)c3cc(Cl)c(N4CCC[C@@H]4COc4ncccc4Cl)cc32)C1` (stereo partly drawn) [Example 38, 6-Chloro-7-[(2R)-2-{[(3-chloropyridin-2-yl)oxy]methyl}-pyrrolidin-1-yl]-1-[1-(2-methoxyethyl)pyrrolidin-3-yl]-4-oxo-1,4-dihydroquinoline-3-carboxylic acid], the IC50 fell in the range of 1000 to 10000 nM.

Regarding `CN(C)CCN1CCC(n2cc(C(=O)O)c(=O)c3cc(Cl)c(N4CCC[C@@H]4COc4ncccc4Cl)cc32)C1` (stereo partly drawn) [Example 39, 6-chloro-7-[(2R)-2-{[(3-chloropyridin-2-yl)oxy]methyl}pyrrolidin-1-yl]-1-{1-[2-(dimethylamino)ethyl]pyrrolidin-3-yl}-4-oxo-1,4-dihydroquinoline-3-carboxylic acid], the IC50 was 10000 to 50000 nM.

Turning to `Nc1ccc(-n2cc(C(=O)O)c(=O)c3cc(Cl)c(N4CCC[C@@H]4COc4ncccc4Cl)cc32)cn1` [Example 40, (R)-1-(6-aminopyridin-3-yl)-6-chloro-7-(2-(((3-chloropyridin-2-yl)oxy)methyl)pyrrolidin-1-yl)-4-oxo-1,4-dihydroquinoline-3-carboxylic acid], the concentration for half-maximal inhibition (IC50) is at most 1000 nM.

As to `O=C(O)c1cn(-c2cnccn2)c2cc(N3C[C@@H](F)C[C@@H]3COc3ncccc3Cl)c(Cl)cc2c1=O` [Example 41, 6-chloro-7-[(2R,4S)-2-{[(3-chloropyridin-2-yl)oxy]methyl}-4-fluoropyrrolidin-1-yl]-4-oxo-1-(pyrazin-2-yl)-1,4-dihydroquinoline-3-carboxylic acid], the 50% inhibitory concentration (IC50) was at most 1000 nM.

In the case of `CN(C)C1CN(c2ccc(-n3cc(C(=O)O)c(=O)c4cc(C#N)c(N5C6CCC5(COc5ncccc5F)CC6)cc43)cn2)C1` [Example 42, 6-cyano-1-(6-(3-(dimethylamino)azetidin-1-yl)pyridin-3-yl)-7-(1-(((3-fluoropyridin-2-yl)oxy)methyl)-7-azabicyclo[2.2.1]heptan-7-yl)-4-oxo-1,4-dihydroquinoline-3-carboxylic acid], the IC50 was at most 1000 nM.

Regarding `O=C(O)c1cn(-c2cnc(OCCO)cn2)c2cc(N3CCC[C@@H]3COc3ncccc3Cl)c(Cl)cc2c1=O` [Example 45, 6-chloro-7-[(2R)-2-[[(3-chloropyridin-2-yl)oxy]methyl]pyrrolidin-1-yl]-1-[5-(2-hydroxyethoxy)pyrazin-2-yl]-4-oxoquinoline-3-carboxylic acid], the IC50 was at most 1000 nM.

`O=C(O)c1cn(-c2cnc3c(n2)COC3)c2cc(N3CCC[C@@H]3COc3ncccc3Cl)c(Cl)cc2c1=O` [Example 46, 6-chloro-7-[(2R)-2-[[(3-chloropyridin-2-yl)oxy]methyl]pyrrolidin-1-yl]-1-[5H,7H-furo[3,4-b]pyrazin-2-yl]-4-oxoquinoline-3-carboxylic acid]: the IC50 is at most 1000 nM.

For `CN(C)C1CN(c2ccc(-n3cc(C(=O)O)c(=O)c4cc(Cl)c(N5C(COc6ncccc6Cl)CCS5(=O)=O)cc43)cn2)C1` (centres unmarked) [Example 47, 6-chloro-7-(3-(((3-chloropyridin-2-yl)oxy)methyl)-1,1-dioxidoisothiazolidin-2-yl)-1-(6-(3-(dimethylamino)azetidin-1-yl)pyridin-3-yl)-4-oxo-1,4-dihydroquinoline-3-carboxylic acid], the 50% inhibitory concentration (IC50) was at most 1000 nM.

Turning to `CN(C)C1CN(c2ccc(-n3cc(C(=O)O)c(=O)c4cc(Cl)c(N5CCC6CC65COc5ncccc5Cl)cc43)cn2)C1` (centres unmarked) [Example 48, 6-chloro-7-(1-[[(3-chloropyridin-2-yl)oxy]methyl]-2-azabicyclo[3.1.0]hexan-2-yl)-1-[6-[3-(dimethylamino)azetidin-1-yl]pyridin-3-yl]-4-oxoquinoline-3-carboxylic acid], the IC50 was at most 1000 nM.

`CN(C)C(=O)OC[C@H]1CCCN1c1cc2c(cc1Cl)c(=O)c(C(=O)O)cn2-c1ccc(N2CC(N(C)C)C2)nc1` [Example 49, 6-chloro-1-[6-[3-(dimethylamino)azetidin-1-yl]pyridin-3-yl]-7-[(2R)-2-[[(dimethylcarbamoyl)oxy]methyl]pyrrolidin-1-yl]-4-oxoquinoline-3-carboxylic acid]: the IC50 was at most 1000 nM.
